Measured values as given in paper PMC12090182, “Repurposing of the RIPK1-Selective Benzo[1,4]oxazepin-4-one Scaffold for the Development of a Type III LIMK1/2 Inhibitor” (ACS Chemical Biology, 2025).

System: MRC-9 cells
Experiment: Multiplex high-content viability assessment
Assay type: cell-based
Details: for Cell count normalized to cells treated with DMSO control / Cell count per well / Population Fragmented Nuclei (%) / Population Healthy Nuclei (%) / Population Pyknosed Nuclei (%) / Population apoptotic cell (%) / Population cell that influence microtubule strucutre (%) / Population with increased mitochondrial mass (%) / Population with membrane disruption (%): human fibroblast
Description: To assess the influence on cell health, a high-content screening in living cells called the multiplex high-content assay, as described previously by Tjaden et al., was performed.[38] In brief, HEK293T (ATCC CRL-1573) and U2OS (ATCCHTB-96) were cultured in DMEM plus L-glutamine (high glucose) supplemented by 10% FBS (Gibco) and penicillin/streptomycin (Gibco). MRC-9 fibroblasts ([…]) were cultured in EMEM plus L-glutamine supplemented by 10% FBS (Gibco) and penicillin/streptomycin (Gibco). Cells were seeded at a density of 1250 cells per well in a 384-well plate in a culture medium (cell culture microplate, PS, f-bottom, μClear, 781091, Greiner), with a volume of 50 μL per well. All outer wells were filled with 100 μL of PBS buffer (Gibco). […] The cell shape and fluorescence were measured before treatment and 12, 24, and 48 h after compound treatment using the CQ1 high-content confocal microscope (Yokogawa, Musashino, Japan). […] The compounds were tested at 1 and 10 μM, respectively. Acquired images of the cells were processed using Yokogawa CellPathfinder software (v3.04.02.02). […] Results were normalized to cells exposed to 0.1% DMSO. All compounds were tested in biological duplicates, and SEM (standard error of mean) was calculated of biological duplicates.

CN1C(=O)[C@@H](N2CCc3c(C(N)=O)nn(Cc4ccccc4)c3C2=O)COc2ccccc21 [Compound 11]
Cell count normalized to cells treated with DMSO control (1 µM, 0 h, replicate 1): 1.108
Cell count per well (1 µM, 0 h, replicate 1): 166
Population Fragmented Nuclei (%) (1 µM, 0 h, replicate 1): 16.15%
Population Healthy Nuclei (%) (1 µM, 0 h, replicate 1): 68.94%
Population Pyknosed Nuclei (%) (1 µM, 0 h, replicate 1): 14.91%
Population apoptotic cell (%) (1 µM, 0 h, replicate 1): 29.17%
Population cell that influence microtubule strucutre (%) (1 µM, 0 h, replicate 1): 21.62%
Population with increased mitochondrial mass (%) (1 µM, 0 h, replicate 1): 7.21%
Population with membrane disruption (%) (1 µM, 0 h, replicate 1): 0.00%
Cell count normalized to cells treated with DMSO control (1 µM, 0 h, replicate 2): 0.9027
Cell count per well (1 µM, 0 h, replicate 2): 161
Population Fragmented Nuclei (%) (1 µM, 0 h, replicate 2): 20.65%
Population Healthy Nuclei (%) (1 µM, 0 h, replicate 2): 50.97%
Population Pyknosed Nuclei (%) (1 µM, 0 h, replicate 2): 28.39%
Population apoptotic cell (%) (1 µM, 0 h, replicate 2): 29.55%
Population cell that influence microtubule strucutre (%) (1 µM, 0 h, replicate 2): 43.04%
Population with increased mitochondrial mass (%) (1 µM, 0 h, replicate 2): 7.59%
Population with membrane disruption (%) (1 µM, 0 h, replicate 2): 5.06%
Cell count normalized to cells treated with DMSO control (1 µM, 12 h, replicate 1): 1.109
Cell count per well (1 µM, 12 h, replicate 1): 167
Population Fragmented Nuclei (%) (1 µM, 12 h, replicate 1): 8.64%
Population Healthy Nuclei (%) (1 µM, 12 h, replicate 1): 75.31%
Population Pyknosed Nuclei (%) (1 µM, 12 h, replicate 1): 16.05%
Population apoptotic cell (%) (1 µM, 12 h, replicate 1): 34.62%
Population cell that influence microtubule strucutre (%) (1 µM, 12 h, replicate 1): 20.49%
Population with increased mitochondrial mass (%) (1 µM, 12 h, replicate 1): 3.28%
Population with membrane disruption (%) (1 µM, 12 h, replicate 1): 0.82%
Cell count normalized to cells treated with DMSO control (1 µM, 12 h, replicate 2): 0.8825
Cell count per well (1 µM, 12 h, replicate 2): 147
Population Fragmented Nuclei (%) (1 µM, 12 h, replicate 2): 22.70%
Population Healthy Nuclei (%) (1 µM, 12 h, replicate 2): 46.81%
Population Pyknosed Nuclei (%) (1 µM, 12 h, replicate 2): 30.50%
Population apoptotic cell (%) (1 µM, 12 h, replicate 2): 34.88%
Population cell that influence microtubule strucutre (%) (1 µM, 12 h, replicate 2): 56.06%
Population with increased mitochondrial mass (%) (1 µM, 12 h, replicate 2): 10.61%
Population with membrane disruption (%) (1 µM, 12 h, replicate 2): 4.55%
Cell count normalized to cells treated with DMSO control (1 µM, 24 h, replicate 1): 1.1208
Cell count per well (1 µM, 24 h, replicate 1): 169
Population Fragmented Nuclei (%) (1 µM, 24 h, replicate 1): 16.36%
Population Healthy Nuclei (%) (1 µM, 24 h, replicate 1): 70.30%
Population Pyknosed Nuclei (%) (1 µM, 24 h, replicate 1): 13.33%
Population apoptotic cell (%) (1 µM, 24 h, replicate 1): 45.45%
Population cell that influence microtubule strucutre (%) (1 µM, 24 h, replicate 1): 18.10%
Population with increased mitochondrial mass (%) (1 µM, 24 h, replicate 1): 3.45%
Population with membrane disruption (%) (1 µM, 24 h, replicate 1): 1.72%
Cell count normalized to cells treated with DMSO control (1 µM, 24 h, replicate 2): 0.8977
Cell count per well (1 µM, 24 h, replicate 2): 148
Population Fragmented Nuclei (%) (1 µM, 24 h, replicate 2): 25.34%
Population Healthy Nuclei (%) (1 µM, 24 h, replicate 2): 47.26%
Population Pyknosed Nuclei (%) (1 µM, 24 h, replicate 2): 27.40%
Population apoptotic cell (%) (1 µM, 24 h, replicate 2): 50.00%
Population cell that influence microtubule strucutre (%) (1 µM, 24 h, replicate 2): 57.97%
Population with increased mitochondrial mass (%) (1 µM, 24 h, replicate 2): 11.59%
Population with membrane disruption (%) (1 µM, 24 h, replicate 2): 5.80%
Cell count normalized to cells treated with DMSO control (1 µM, 48 h, replicate 1): 1.035
Cell count per well (1 µM, 48 h, replicate 1): 157
Population Fragmented Nuclei (%) (1 µM, 48 h, replicate 1): 12.50%
Population Healthy Nuclei (%) (1 µM, 48 h, replicate 1): 75.00%
Population Pyknosed Nuclei (%) (1 µM, 48 h, replicate 1): 12.50%
Population apoptotic cell (%) (1 µM, 48 h, replicate 1): 68.42%
Population cell that influence microtubule strucutre (%) (1 µM, 48 h, replicate 1): 16.67%
Population with increased mitochondrial mass (%) (1 µM, 48 h, replicate 1): 3.51%
Population with membrane disruption (%) (1 µM, 48 h, replicate 1): 0.88%
Cell count normalized to cells treated with DMSO control (1 µM, 48 h, replicate 2): 0.8596
Cell count per well (1 µM, 48 h, replicate 2): 140
Population Fragmented Nuclei (%) (1 µM, 48 h, replicate 2): 27.61%
Population Healthy Nuclei (%) (1 µM, 48 h, replicate 2): 55.22%
Population Pyknosed Nuclei (%) (1 µM, 48 h, replicate 2): 17.16%
Population apoptotic cell (%) (1 µM, 48 h, replicate 2): 39.13%
Population cell that influence microtubule strucutre (%) (1 µM, 48 h, replicate 2): 47.30%
Population with increased mitochondrial mass (%) (1 µM, 48 h, replicate 2): 9.46%
Population with membrane disruption (%) (1 µM, 48 h, replicate 2): 2.70%
cytotoxicity (1 μM, MRC-9): no cytotoxicity
Cell count normalized to cells treated with DMSO control (10 µM, 0 h, replicate 1): 0.9342
Cell count per well (10 µM, 0 h, replicate 1): 140
Population Fragmented Nuclei (%) (10 µM, 0 h, replicate 1): 19.23%
Population Healthy Nuclei (%) (10 µM, 0 h, replicate 1): 57.69%
Population Pyknosed Nuclei (%) (10 µM, 0 h, replicate 1): 23.08%
Population apoptotic cell (%) (10 µM, 0 h, replicate 1): 33.33%
Population cell that influence microtubule strucutre (%) (10 µM, 0 h, replicate 1): 24.00%
Population with increased mitochondrial mass (%) (10 µM, 0 h, replicate 1): 6.67%
Population with membrane disruption (%) (10 µM, 0 h, replicate 1): 1.33%
Cell count normalized to cells treated with DMSO control (10 µM, 0 h, replicate 2): 0.8634
Cell count per well (10 µM, 0 h, replicate 2): 154
Population Fragmented Nuclei (%) (10 µM, 0 h, replicate 2): 23.88%
Population Healthy Nuclei (%) (10 µM, 0 h, replicate 2): 43.28%
Population Pyknosed Nuclei (%) (10 µM, 0 h, replicate 2): 32.84%
Population apoptotic cell (%) (10 µM, 0 h, replicate 2): 40.91%
Population cell that influence microtubule strucutre (%) (10 µM, 0 h, replicate 2): 39.66%
Population with increased mitochondrial mass (%) (10 µM, 0 h, replicate 2): 15.52%
Population with membrane disruption (%) (10 µM, 0 h, replicate 2): 8.62%
Cell count normalized to cells treated with DMSO control (10 µM, 12 h, replicate 1): 0.8966
Cell count per well (10 µM, 12 h, replicate 1): 135
Population Fragmented Nuclei (%) (10 µM, 12 h, replicate 1): 18.46%
Population Healthy Nuclei (%) (10 µM, 12 h, replicate 1): 53.08%
Population Pyknosed Nuclei (%) (10 µM, 12 h, replicate 1): 28.46%
Population apoptotic cell (%) (10 µM, 12 h, replicate 1): 67.57%
Population cell that influence microtubule strucutre (%) (10 µM, 12 h, replicate 1): 69.57%
Population with increased mitochondrial mass (%) (10 µM, 12 h, replicate 1): 15.94%
Population with membrane disruption (%) (10 µM, 12 h, replicate 1): 1.45%
Cell count normalized to cells treated with DMSO control (10 µM, 12 h, replicate 2): 0.8165
Cell count per well (10 µM, 12 h, replicate 2): 136
Population Fragmented Nuclei (%) (10 µM, 12 h, replicate 2): 28.57%
Population Healthy Nuclei (%) (10 µM, 12 h, replicate 2): 55.46%
Population Pyknosed Nuclei (%) (10 µM, 12 h, replicate 2): 15.97%
Population apoptotic cell (%) (10 µM, 12 h, replicate 2): 47.37%
Population cell that influence microtubule strucutre (%) (10 µM, 12 h, replicate 2): 83.33%
Population with increased mitochondrial mass (%) (10 µM, 12 h, replicate 2): 30.30%
Population with membrane disruption (%) (10 µM, 12 h, replicate 2): 7.58%
Cell count normalized to cells treated with DMSO control (10 µM, 24 h, replicate 1): 0.8754
Cell count per well (10 µM, 24 h, replicate 1): 132
Population Fragmented Nuclei (%) (10 µM, 24 h, replicate 1): 17.21%
Population Healthy Nuclei (%) (10 µM, 24 h, replicate 1): 55.74%
Population Pyknosed Nuclei (%) (10 µM, 24 h, replicate 1): 27.05%
Population apoptotic cell (%) (10 µM, 24 h, replicate 1): 60.61%
Population cell that influence microtubule strucutre (%) (10 µM, 24 h, replicate 1): 72.06%
Population with increased mitochondrial mass (%) (10 µM, 24 h, replicate 1): 17.65%
Population with membrane disruption (%) (10 µM, 24 h, replicate 1): 1.47%
Cell count normalized to cells treated with DMSO control (10 µM, 24 h, replicate 2): 0.8068
Cell count per well (10 µM, 24 h, replicate 2): 133
Population Fragmented Nuclei (%) (10 µM, 24 h, replicate 2): 30.89%
Population Healthy Nuclei (%) (10 µM, 24 h, replicate 2): 56.10%
Population Pyknosed Nuclei (%) (10 µM, 24 h, replicate 2): 13.01%
Population apoptotic cell (%) (10 µM, 24 h, replicate 2): 56.25%
Population cell that influence microtubule strucutre (%) (10 µM, 24 h, replicate 2): 65.22%
Population with increased mitochondrial mass (%) (10 µM, 24 h, replicate 2): 20.29%
Population with membrane disruption (%) (10 µM, 24 h, replicate 2): 5.80%
Cell count normalized to cells treated with DMSO control (10 µM, 48 h, replicate 1): 0.8898
Cell count per well (10 µM, 48 h, replicate 1): 135
Population Fragmented Nuclei (%) (10 µM, 48 h, replicate 1): 23.81%
Population Healthy Nuclei (%) (10 µM, 48 h, replicate 1): 54.76%
Population Pyknosed Nuclei (%) (10 µM, 48 h, replicate 1): 21.43%
Population apoptotic cell (%) (10 µM, 48 h, replicate 1): 85.19%
Population cell that influence microtubule strucutre (%) (10 µM, 48 h, replicate 1): 56.52%
Population with increased mitochondrial mass (%) (10 µM, 48 h, replicate 1): 14.49%
Population with membrane disruption (%) (10 µM, 48 h, replicate 1): 0.00%
Cell count normalized to cells treated with DMSO control (10 µM, 48 h, replicate 2): 0.8904
Cell count per well (10 µM, 48 h, replicate 2): 145
Population Fragmented Nuclei (%) (10 µM, 48 h, replicate 2): 38.30%
Population Healthy Nuclei (%) (10 µM, 48 h, replicate 2): 58.16%
Population Pyknosed Nuclei (%) (10 µM, 48 h, replicate 2): 3.55%
Population apoptotic cell (%) (10 µM, 48 h, replicate 2): 60.00%
Population cell that influence microtubule strucutre (%) (10 µM, 48 h, replicate 2): 71.95%
Population with increased mitochondrial mass (%) (10 µM, 48 h, replicate 2): 18.29%
Population with membrane disruption (%) (10 µM, 48 h, replicate 2): 3.66%
